According to patent US10336697B2, “Spiro[cyclobutane-1,3′-indolin]-2′-one derivatives as bromodomain inhibitors” (Orion Corporation, priority 2015, dated 2019):

Target: Bet BRD4 full length bromo-domain protein (Homo sapiens, UniProt O60885)
Test: Bet bromodomain TR-FRET assay (displacement of acetyl histone peptide)
Assay type: binding
Conditions: Bet BRD4 full length bromodomain protein, 300 nM acetyl histone peptide substrate, read-out: IC50

| Structure (SMILES) | IC50 [nM] |
| --- | --- |
| O=C(c1cc(NS(=O)(=O)c2ccc(F)cc2F)cc2c1NC(=O)C21CCC1)N1CCOCC1 [Compound 48, 2,4-Difluoro-N-(7′-(morpholine-4-carbonyl)-2′-oxospiro [cyclobutane-1,3′-indolin]-5′-yl)benzenesulfonamide] | > 1000 |
| COc1ccc(S(=O)(=O)Nc2cc(Cc3cccc(F)c3)c3c(c2)C2(CCC2)C(=O)N3)c(F)c1 [Compound 95, 2-Fluoro-N-(7′-(3-fluorobenzyl)-2′-oxospiro[cyclobutane-1,3′-indolin]-5′-yl)-4-methoxybenzenesulfonamide] | < 600 |
